Results on 19 molecules are retold here after patent publication US20230286929A1, “AROMATIC BRIDGED RING AMIDE DERIVATIVES FOR THE TREATMENT AND PROPHYLAXIS OF HEPATITIS B VIRUS INFECTION” (Hoffmann-La Roche Inc., priority 2020, published 2023).

Structures are written as SMILES. A value given as a limit tells only on which side of the number the result lay.

Common to all, as to assay type: cell-based
One data set deals with HBsAg. The data set is described as follows: PHH HBV natural infection assay, HBsAg (alphalisa). The conditions noted are these: Hepatitis B virus, Hepatocyte, 72 h, read-out: HBsAg IC50. As for the experimental part:
(§1) Detailed procedures regarding primary human hepatocyte (PHH) HBV natural infection assay are described as below. One tube of frozen PHH (10 million cells) is thawed in 37° C. water bath and then transferred to 20 mL of PHH thawing medium (Sigma, InVitroGRO HT Medium, Cat. S03319) with gently mixing. The cells were then centrifuged at […] for 5 min, the supernatant was discarded and the tube was refilled with 25 mL of PHH plating medium (Sigma, InVitroGRO CP Medium, Cat. 503317). The tube was shaken very gently to re-suspend all cells. 50 μl of cells were transferred to each well 384-well collagen I coated plate with appropriate liquid handling equipment, e.g. Integra VIAFLO384 or Agilent Bravo. The cells were then cultured for 24 hours in a cell incubator. For HBV infection, after PHH attachment on the culture plate, the plating medium was removed and replenished with PHH culture medium containing HBV virus. The PHH culture medium was prepared with Dulbecco's Modified Eagle Medium (DMEM)/F12 (1:1 in volume ratio) containing 10% fetal bovine serum (Gibco, Cat. 10099141), […] (Gibco, Cat. PHG03I1L), 20 ng/mL dexamethasone (Sigma, Cat. D4902-100 mg), 250 ng/mL human recombinant insulin (Gibco, Cat. 41400045) and 100 U/mL penicillin. HBV virus at 200 genome equivalent (GE) per cell with 4% PEG8000 (Sigma, Cat. P1458) containing culture medium were added to the PHH culture medium for infection. The cells were then cultured for 24 hours in cell incubator. Then the cell culture supernatant was removed. The HBV-infected PHH were cultured with sandwich culture method with PHH culture medium containing 1% DMSO and 0.25 mg/mL matrix gel for 72 hours. The supernatant was then refreshed with PHH culture medium containing different concentrations of testing compounds for two times with 72-hour interval. At the end of treatment, the supernatant was collected for viral markers measurements, including HBsAg, HBeAg, HBV DNA and cytotoxicity. HBsAg and HBeAg were detected using alphalisa method using their specific antibodies. For HBV DNA detection, HBV DNA Quantitative Fluorescence Diagnostic Kit (Sansure Biotech Inc.) was used following the manufacture's protocol. Cytotoxicity was determined using Cell Counting Kit-8 (CCK8, Dojindo Molecular Technologies, Inc.).
(§2) The compounds of the present invention were tested for their capacity to inhibit HBsAg and HBeAg as described herein.
In general terms: In Alpha technology, singlet oxygen from a donor bead excites a nearby acceptor bead.

Another data set relates to HBeAg. The data set is described as follows: PHH HBV natural infection assay, HBeAg (alphalisa). The conditions noted are these: Hepatitis B virus, Hepatocyte, 72 h, read-out: HbeAg IC50. As to the method:
as §1, §2

Data set [1] in a line: Cytotoxicity in PHH natural infection assay (Cell Counting Kit-8). The settings on record: HBV-infected primary human hepatocytes, CCK8. As to the method:
as §1
On the technique in general: Tetrazolium dyes change colour on reduction, which living cells bring about.

As a reminder, the IC50 is the concentration that gives 50% inhibition. A word on the CC50: it is the concentration at which the toxic effect on the cells reaches its halfway point.

As for `O=C(NC12CC(c3nc4ccc(Cl)cc4o3)(C1)C2)c1ccc(S(=O)(=O)CC2CC2)o1` [Example 34, N-[3-(6-chloro-1,3-benzoxazol-2-yl)-1-bicyclo[1.1.1]pentanyl]-5-(cyclopropylmethylsulfonyl)furan-2-carboxamide], the IC50 came out at 3.54 µM in the data set with HBsAg and 2.79 µM with HBeAg. Also, the midpoint of cytotoxicity in data set [1], the CC50 at 144 h, lay at 95.4 µM.
For `O=C(NC12CC(c3nc4ccc(Cl)cc4o3)(C1)C2)c1ccnc(C(F)(F)F)c1` [Example 37, N-[3-(6-chloro-1,3-benzoxazol-2-yl)-1-bicyclo[1.1.1]pentanyl]-2-(trifluoromethyl)pyridine-4-carboxamide] the same measures were 4.17 µM, 3.63 µM and greater than 100 µM.
As to `O=C(NC12CC(c3nc4cc(Cl)ccc4o3)(C1)C2)c1ccc(Br)cc1` [Example 20, 4-bromo-N-[3-(5-chloro-1,3-benzoxazol-2-yl)-1-bicyclo[1.1.1]pentanyl]benzamide], the IC50 in the data set on HBsAg is 4.28 µM; with HBeAg, 7.21 µM. In data set [1], this molecule came in with a CC50 at 144 h greater than 100 µM.
In the case of `C[S@+]([O-])c1ccc(C(=O)NC23CC(c4nc5cc(Cl)ccc5o4)(C2)C3)o1` [Example 2-a, N-[3-(5-chloro-1,3-benzoxazol-2-yl)-1-bicyclo[1.1.1]pentanyl]-5-[(S)-methylsulfinyl]furan-2-carboxamide], the IC50 in the data set on HBsAg amounted to 2.38 µM; in the data set on HBeAg it was 1.19 µM. Further, the CC50 at 144 h in data set [1] is greater than 100 µM.
For `CS(=O)(=O)c1cccc(C(=O)NC23CC(c4nc5ccc(Cl)cc5o4)(C2)C3)c1` [Example 36, N-[3-(6-chloro-1,3-benzoxazol-2-yl)-1-bicyclo[1.1.1]pentanyl]-3-methylsulfonyl-benzamide] the same measures were 2.25 µM, 2.5 µM and greater than 100 µM.
On the same counts, the results for `N=S(=O)(CC1COC1)c1ccc(C(=O)NC23CC(c4nc5cc(Cl)ccc5o4)(C2)C3)o1` (stereo not drawn) [Example 15, N-[3-(5-chloro-1,3-benzoxazol-2-yl)-1-bicyclo[1.1.1]pentanyl]-5-(oxetan-3-ylmethylsulfonimidoyl)furan-2-carboxamide] are 4.76 µM, 3.31 µM and greater than 100 µM.
On the same counts, the results for `CC1(C(=O)NC23CCC(c4nc5cc(Cl)ccc5o4)(CC2)CC3)CCS(=O)(=O)C1` (stereo not drawn) [Example 51, N-[4-(5-chloro-1,3-benzoxazol-2-yl)-1-bicyclo[2.2.2]octanyl]-3-methyl-1,1-dioxo-thiolane-3-carboxamide] are 9.21 µM, 4.87 µM and greater than 100 µM.
With `CS(=O)(=O)c1ccc(C(=O)NC23CC(c4nc5cccc(Cl)c5o4)(C2)C3)o1` [Example 44, N-[3-(7-chloro-1,3-benzoxazol-2-yl)-1-bicyclo[1.1.1]pentanyl]-5-methylsulfonyl-furan-2-carboxamide], the IC50 was 8.93 µM in the data set on HBsAg and 3.1 µM in the data set with HBeAg. The CC50 at 144 h in data set [1] is greater than 100 µM.
Consider `O=C(CC1CCCS(=O)(=O)C1)NC12CCC(c3nc4cc(Cl)ccc4o3)(CC1)CC2` (stereo not drawn) [Example 54, N-[4-(5-chloro-1,3-benzoxazol-2-yl)-1-bicyclo[2.2.2]octanyl]-2-(1,1-dioxothian-3-yl)acetamide], for which the IC50 in the data set with HBsAg is 3.38 µM; with HBeAg it was 3.22 µM. The molecule further displayed a CC50 at 144 h in data set [1] of 43.9 µM.
For `C[S@@](=N)(=O)c1ccc(C(=O)NC23CC(c4nc5cc(Cl)ccc5o4)(C2)C3)o1` [Example 12-a, N-[3-(5-chloro-1,3-benzoxazol-2-yl)-1-bicyclo[1.1.1]pentanyl]-5-[(R)-methylsulfonimidoyl]furan-2-carboxamide] the same measures were 2.23 µM, 1.3 µM and greater than 100 µM.
For `C[S@](=N)(=O)c1ccc(C(=O)NC23CC(c4nc5cc(Cl)ccc5o4)(C2)C3)o1` [Example 12-b, N-[3-(5-chloro-1,3-benzoxazol-2-yl)-1-bicyclo[1.1.1]pentanyl]-5-[(S)-methylsulfonimidoyl]furan-2-carboxamide] the same measures were 2.19 µM, 1.01 µM and greater than 100 µM.
On the same counts, the results for `O=C(NC12CC(c3nc4cc(Cl)cnc4o3)(C1)C2)c1ccnc(C(F)(F)F)c1` [Example 42, N-[3-(6-chlorooxazolo[5,4-b]pyridin-2-yl)-1-bicyclo[1.1.1]pentanyl]-2-(trifluoromethyl)pyridine-4-carboxamide] are 8.83 µM, 10.6 µM and 92 µM.
As for `O=C(NC12CC(c3nc4cc(Cl)ccc4o3)(C1)C2)c1ccc(S(=O)(=O)CC2CC2)o1` [Example 7, N-[3-(5-chloro-1,3-benzoxazol-2-yl)-1-bicyclo[1.1.1]pentanyl]-5-(cyclopropylmethylsulfonyl)furan-2-carboxamide], the figures for the IC50 in the data set on HBsAg and in the data set with HBeAg were 1.31 µM and 1.21 µM, respectively. The molecule further displayed a CC50 at 144 h in data set [1] of 73.1 µM.
In the case of `CS(=O)(=O)c1cccc(C(=O)NC23CC(c4nc5cc(Cl)ccc5o4)(C2)C3)c1` [Example 22, N-[3-(5-chloro-1,3-benzoxazol-2-yl)-1-bicyclo[1.1.1]pentanyl]-3-methylsulfonyl-benzamide], the IC50 in the data set with HBsAg was 3 µM; in the data set on HBeAg, 2.33 µM. The CC50 at 144 h in data set [1] was greater than 100 µM.
With `O=C(NC12CC(c3nc4ccc(Cl)cc4o3)(C1)C2)c1ccc(S(=O)(=O)C2CC2)o1` [Example 33, N-[3-(6-chloro-1,3-benzoxazol-2-yl)-1-bicyclo[1.1.1]pentanyl]-5-cyclopropylsulfonyl-furan-2-carboxamide], the IC50 amounted to 0.792 µM in the data set with HBsAg and 0.58 µM with HBeAg. This molecule also had a half-maximal cytotoxic concentration (CC50) at 144 h in data set [1] greater than 100 µM.
On the same counts, the results for `N=S(=O)(CC1CC1)c1ccc(C(=O)NC23CC(c4nc5cc(Cl)ccc5o4)(C2)C3)o1` (stereo not drawn) [Example 13, N-[3-(5-chloro-1,3-benzoxazol-2-yl)-1-bicyclo[1.1.1]pentanyl]-5-(cyclopropylmethylsulfonimidoyl)furan-2-carboxamide] are 0.95 µM, 0.995 µM and greater than 100 µM.
On the same counts, the results for `O=C(NC12CCC(c3nc4cc(Cl)ccc4o3)(CC1)CC2)C1CC2(C1)CS(=O)(=O)C2` [Example 48, N-[4-(5-chloro-1,3-benzoxazol-2-yl)-1-bicyclo[2.2.2]octanyl]-2,2-dioxo-2lambda6-thiaspiro[3.3]heptane-6-carboxamide] are 1.71 µM, 1.03 µM and greater than 100 µM.
On the same counts, the results for `O=C(NC12CC(c3nc4cc(Cl)ccc4o3)(C1)C2)c1ccnc(C(F)(F)F)c1` [Example 23, N-[3-(5-chloro-1,3-benzoxazol-2-yl)-1-bicyclo[1.1.1]pentanyl]-2-(trifluoromethyl)pyridine-4-carboxamide] are 2.05 µM, 1.7 µM and 96.9 µM.
With `CCCC(=O)NS(=O)(=O)c1ccc(C(=O)NC23CC(c4nc5cc(Cl)ccc5o4)(C2)C3)o1` [Example 31, 5-(butanoylsulfamoyl)-N-[3-(5-chloro-1,3-benzoxazol-2-yl)-1-bicyclo[1.1.1]pentanyl]furan-2-carboxamide], the IC50 in the data set with HBsAg came to 3.63 µM; in the data set with HBeAg, 4.78 µM. For the same molecule, the CC50 at 144 h in data set [1] was greater than 100 µM.
